Test results published in PMC4188605, “Biochemical and Pharmacological Characterization of the Human Lymphocyte Antigen B-Associated Transcript 5 (BAT5/ABHD16A)” (PLoS ONE, 2014).
Values joined by “and” are separate entries in the source; they are usually repeats but may differ in a detail not shown here. Identical values can stand only once. Like-named read-outs stand apart in the source and are kept apart here.

Tests used:
hBAT5 [1] = molecular target: T1, hBAT5 (Homo sapiens, UniProt O95870); test: hBAT5 substrate hydrolysis and Michaelis-Menten kinetics (glycerol assay, hBAT5-HEK293 lysates); details: with 0.5% BSA
T1 sequence (O95870 1-558): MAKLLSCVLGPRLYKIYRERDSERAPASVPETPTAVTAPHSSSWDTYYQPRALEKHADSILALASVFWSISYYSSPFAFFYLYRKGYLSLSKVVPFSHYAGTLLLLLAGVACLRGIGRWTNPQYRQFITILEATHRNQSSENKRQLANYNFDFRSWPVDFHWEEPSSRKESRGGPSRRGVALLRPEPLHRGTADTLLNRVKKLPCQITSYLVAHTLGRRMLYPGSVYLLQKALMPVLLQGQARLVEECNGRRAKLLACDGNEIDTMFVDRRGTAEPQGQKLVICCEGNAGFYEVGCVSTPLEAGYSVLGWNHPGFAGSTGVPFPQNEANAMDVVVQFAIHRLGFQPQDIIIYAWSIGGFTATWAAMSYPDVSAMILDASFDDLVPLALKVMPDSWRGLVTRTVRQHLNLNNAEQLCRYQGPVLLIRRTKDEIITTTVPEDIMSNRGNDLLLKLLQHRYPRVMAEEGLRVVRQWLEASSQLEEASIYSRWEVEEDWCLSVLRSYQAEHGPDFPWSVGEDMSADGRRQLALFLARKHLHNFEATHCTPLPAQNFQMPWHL
Protocol: (§1) HEK293 cells were transiently transfected with the cDNA encoding hBAT5, as detailed in the Methods section. After 48 h, cells were harvested and lysates prepared for hydrolase activity measurements using a sensitive fluorescent glycerol assay. […] Glycerol production was determined at time-point 60 min.
(§2) After 48 h, cells were harvested and lysates prepared for hydrolase activity measurements. Cellular lysates (0.3 µg/well) were incubated together with the indicated concentrations of 1-LG in assay mixes containing (+ BSA) or not (– BSA) 0.5% (w/v) BSA (A) or with 15d-PGJ2-G in assay mix containing BSA (B). […] As crude cellular lysates were used, total protein concentration was used instead of true enzyme concentration. […] Values are mean ± SEM from three independent experiments.
(§3) Glycerol liberated from the hydrolysis of glycerolipid substrates was determined kinetically using a fluorometric assay, essentially as previously described [10]. Briefly, glycerol production was coupled via a three-step enzymatic cascade to hydrogen peroxide (H2O2) dependent generation of resorufin whose fluorescence (λex 530; λem 590 nm) was kinetically monitored using a Tecan Infinite M200 plate reader (Tecan Group Ltd., Männedorf, Switzerland). The assays routinely contained 0.5% (w/v) BSA (essentially fatty acid free) as a carrier for lipophilic compounds. […] The twelve MAG substrates were tested also in assays without BSA. In addition, four commercially available PG-Gs were included. To monitor assay performance, assay blanks without enzyme, cellular background (HEK293/Mock cell lysates) as well as a glycerol standard were included for each tested substrate. Fluorescence of the assay blank was subtracted before calculation of the final results.

hMAGL [2] = molecular target: T2, hMAGL (Homo sapiens, UniProt Q99685); details: 15d-PGJ2-G as substrate for hMAGL; cited from earlier work
T2 construct: expressed in transfected cells; host or cells: HEK
T2 sequence (Q99685 1-303): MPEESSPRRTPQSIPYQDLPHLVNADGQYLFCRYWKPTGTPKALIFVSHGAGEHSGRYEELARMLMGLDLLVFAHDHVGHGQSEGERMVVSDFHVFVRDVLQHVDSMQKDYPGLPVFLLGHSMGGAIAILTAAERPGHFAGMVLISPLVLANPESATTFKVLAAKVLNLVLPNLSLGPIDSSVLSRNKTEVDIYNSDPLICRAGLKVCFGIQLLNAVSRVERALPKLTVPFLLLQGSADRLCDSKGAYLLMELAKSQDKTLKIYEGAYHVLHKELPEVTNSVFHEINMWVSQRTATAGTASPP

hABHD6 = molecular target: T3, hABHD6 (Homo sapiens, UniProt Q9BV23); test: Hydrolase activity assay, hABHD6-HEK lysates; assay type: biochemical; details: IC50, hABHD6-HEK lysates
T3 construct: expressed in transfected cells; host or cells: HEK293
T3 sequence (Q9BV23 1-337): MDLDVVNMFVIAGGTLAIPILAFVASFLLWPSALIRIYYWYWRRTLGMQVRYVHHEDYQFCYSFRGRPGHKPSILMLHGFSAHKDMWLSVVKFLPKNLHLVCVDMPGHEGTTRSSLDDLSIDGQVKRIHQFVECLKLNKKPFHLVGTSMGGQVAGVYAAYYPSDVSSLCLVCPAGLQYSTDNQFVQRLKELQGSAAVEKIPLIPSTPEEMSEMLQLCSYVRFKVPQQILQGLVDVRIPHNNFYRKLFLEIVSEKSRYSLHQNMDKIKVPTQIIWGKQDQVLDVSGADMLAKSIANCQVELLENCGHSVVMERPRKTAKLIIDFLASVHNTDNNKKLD

hABHD12 [3] = molecular target: T4, hABHD12 (Homo sapiens, UniProt Q8N2K0); test: Hydrolase activity assay, hABHD12-HEK lysates; assay type: biochemical
T4 construct: expressed in transfected cells; host or cells: HEK293
T4 sequence (Q8N2K0 1-398): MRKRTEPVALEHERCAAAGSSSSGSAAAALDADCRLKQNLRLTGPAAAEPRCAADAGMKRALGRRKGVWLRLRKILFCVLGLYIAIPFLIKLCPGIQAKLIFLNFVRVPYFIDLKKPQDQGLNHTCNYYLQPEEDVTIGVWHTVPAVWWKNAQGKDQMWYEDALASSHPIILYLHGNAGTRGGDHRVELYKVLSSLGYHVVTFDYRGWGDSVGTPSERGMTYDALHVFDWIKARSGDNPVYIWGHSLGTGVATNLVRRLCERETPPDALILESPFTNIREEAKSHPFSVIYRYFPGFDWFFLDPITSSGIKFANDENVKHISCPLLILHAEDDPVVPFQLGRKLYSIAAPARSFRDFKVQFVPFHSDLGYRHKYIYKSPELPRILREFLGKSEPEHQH

hMAGL [4] = molecular target: T2, hMAGL; test: Hydrolase activity assay, hMAGL-HEK lysates; assay type: biochemical
hFAAH = molecular target: T5, hFAAH (Homo sapiens, UniProt O00519); test: FAAH activity assay, hFAAH-COS7 membranes (3H-anandamide); assay type: biochemical
T5 construct: expressed in transfected cells; host or cells: COS-7
T5 sequence (O00519 1-579): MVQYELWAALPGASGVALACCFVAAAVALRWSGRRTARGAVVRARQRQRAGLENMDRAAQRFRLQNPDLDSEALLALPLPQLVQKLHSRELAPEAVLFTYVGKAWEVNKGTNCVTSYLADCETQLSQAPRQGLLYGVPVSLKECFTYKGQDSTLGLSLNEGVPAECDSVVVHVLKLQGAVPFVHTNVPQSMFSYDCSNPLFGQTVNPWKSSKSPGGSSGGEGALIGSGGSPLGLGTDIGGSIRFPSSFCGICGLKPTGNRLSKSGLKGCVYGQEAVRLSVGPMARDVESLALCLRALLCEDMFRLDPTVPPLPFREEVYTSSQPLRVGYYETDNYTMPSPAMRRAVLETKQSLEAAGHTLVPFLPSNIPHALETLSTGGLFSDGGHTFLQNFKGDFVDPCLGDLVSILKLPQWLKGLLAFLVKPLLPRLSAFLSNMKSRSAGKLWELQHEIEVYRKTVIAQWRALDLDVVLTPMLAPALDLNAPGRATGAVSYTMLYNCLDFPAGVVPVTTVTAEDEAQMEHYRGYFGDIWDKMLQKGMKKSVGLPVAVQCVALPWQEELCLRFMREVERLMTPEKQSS

BAT5 = molecular target: T6, BAT5 (Mus musculus, UniProt Q9Z1Q2); test: Competitive ABPP, mouse brain membrane proteome: BAT5 band; details: reference inhibitor at the indicated concentration, used to identify the band (refs 4, 18)
T6 sequence (Q9Z1Q2 1-558): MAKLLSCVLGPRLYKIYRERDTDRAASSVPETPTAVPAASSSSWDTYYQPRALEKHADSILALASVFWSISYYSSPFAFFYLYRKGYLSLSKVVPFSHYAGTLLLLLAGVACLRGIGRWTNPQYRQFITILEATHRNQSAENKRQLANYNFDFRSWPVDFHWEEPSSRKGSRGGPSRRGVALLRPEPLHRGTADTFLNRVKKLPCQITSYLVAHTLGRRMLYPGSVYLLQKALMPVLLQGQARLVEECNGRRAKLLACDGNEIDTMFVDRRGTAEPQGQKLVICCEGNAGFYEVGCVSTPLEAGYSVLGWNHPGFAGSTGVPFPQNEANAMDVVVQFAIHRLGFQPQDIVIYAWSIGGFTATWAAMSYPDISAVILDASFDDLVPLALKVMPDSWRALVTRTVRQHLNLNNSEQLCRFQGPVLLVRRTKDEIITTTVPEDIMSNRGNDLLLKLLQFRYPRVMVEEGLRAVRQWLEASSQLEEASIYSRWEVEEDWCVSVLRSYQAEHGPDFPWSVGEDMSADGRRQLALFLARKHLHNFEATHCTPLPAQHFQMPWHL

ABHD6 = molecular target: T7, ABHD6 (Mus musculus, UniProt Q8R2Y0); test: Competitive ABPP, mouse brain membrane proteome: ABHD6 band
T7 sequence (Q8R2Y0 1-336): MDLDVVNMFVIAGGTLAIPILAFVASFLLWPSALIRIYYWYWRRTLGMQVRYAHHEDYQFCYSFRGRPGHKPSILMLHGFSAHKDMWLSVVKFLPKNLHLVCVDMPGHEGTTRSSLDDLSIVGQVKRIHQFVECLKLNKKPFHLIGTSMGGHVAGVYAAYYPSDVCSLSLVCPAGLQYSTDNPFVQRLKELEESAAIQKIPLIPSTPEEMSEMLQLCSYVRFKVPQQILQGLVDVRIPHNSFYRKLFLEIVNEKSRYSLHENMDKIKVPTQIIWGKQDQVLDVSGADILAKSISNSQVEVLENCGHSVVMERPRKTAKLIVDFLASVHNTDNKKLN

hBAT5 [5] = molecular target: T1, hBAT5; test: Inhibition of 1-LG hydrolysis in hBAT5-HEK293 lysates (fluorescent glycerol assay); assay type: biochemical; set-up: host or cells: HEK293; details: 1-LG 25 µM; 30 min inhibitor pretreatment; monitored 90 min; mean, n=3; read-out: IC50
hABHD12 [6] = molecular target: T4, hABHD12; set-up: method as in PMID 22969151; details: hABHD12-HEK lysates; cited from earlier work
[7] = substrate: CCCCC/C=C\C/C=C\CCCCCCCCOCC(O)CO; test: cells, lysate or membranes named; details: other: substrate of hBAT5, time-point 90 min, n=3
Protocol: as §1, §2, §3

With `CCCCC/C=C/C=C1/C(=O)C=CC1C/C=C\CCCC(=O)OC(CO)CO` (stereo not shown) [15d-PGJ2-G, 15-deoxy-Δ^12,14-prostaglandin J2-2-glycerol ester] the “hydrolysis by hBAT5 (substrate utilization, in words)” value (hBAT5 [1]; 25 µM substrate, 60 min) was “readily hydrolyzed”, the Km (hBAT5 [1]; substrate of hBAT5, time-point 90 min, n=3) was 20.9 µM and ~21 µM and the Vmax (hBAT5 [1]; substrate of hBAT5, total lysate protein, n=3) was 3.0 ± 0.2 nmol/mg/min. For the same molecule, the Km (hMAGL [2]) was ~15 µM.

In the case of `CCC(C)C(O)C(C)C(=O)C(C)C=C(C)CC(C)C1OC(=O)C1C` (stereo not shown) [Ebelactone A, ebelactone A], the IC50 (hABHD6) is reported as 870 nM, the remaining activity at 10 µM (hABHD12 [3]) is reported as 100% and the “sensitivity of hABHD12 (in words)” value (hABHD12 [3]) is reported as “resistant”. The remaining activity at 10 µM (hMAGL [4]) was 90.8%, the “sensitivity of hMAGL (in words)” value (hMAGL [4]) was “resistant” and the remaining activity at 10 µM (hFAAH) was 87.3%. For the same molecule, the “sensitivity of hFAAH (in words)” value (hFAAH) was “resistant”.

For `CCCCCCCCCCC[C@@H](C[C@@H]1OC(=O)[C@H]1CCCCCC)OC(=O)[C@H](CC(C)C)NC=O` [THL, tetrahydrolipstatin], the remaining activity at 10 µM (hMAGL [4]; at 10^−5 M, read-out: Remaining activity) was 88.1%, the remaining activity at 10 µM (hFAAH) was 100% and the “inhibition of probe labeling of BAT5 by reference inhibitor” value (BAT5) was “inhibited”. The “inhibition of probe labeling of ABHD6 by reference inhibitor” value (ABHD6) was “inhibited”, the IC50 (hBAT5 [5]) was 170 nM and the IC50 (hABHD12 [6]) was 193 nM.

B1: hBAT5 (Homo sapiens) (protein)
chain: T1 sequence (O95870 1-558)
For B1, the Km ([7]; with 0.5% BSA) was 137.8 ± 30.6 µM and 140 µM and the Km ([7]; without BSA) was 6.9 ± 1.7 µM.
